From article PMC8185074, “Anchor extension: a structure-guided approach to design cyclic peptides targeting enzyme active sites” (Nature Communications, 2021)
pIC50: −log10 of the molar value. Several values for one entry are separate records, joined by “and”; a condition that tells them apart may be missing. Equal values may be shown once. Peptide text beside a SMILES is read from it.

What was measured:
Assay type in all cases: biochemical
HDAC3 = target: T1, HDAC3 (Homo sapiens, UniProt O15379); experiment: HDAC3 inhibition, full IC50 measurement (Reaction Biology; fluorogenic p53 peptide RHKK(Ac)AMC)
T1 construct: purchased Reaction Biology Corporation (assay run by the CRO)
T1 sequence (O15379 whole entry): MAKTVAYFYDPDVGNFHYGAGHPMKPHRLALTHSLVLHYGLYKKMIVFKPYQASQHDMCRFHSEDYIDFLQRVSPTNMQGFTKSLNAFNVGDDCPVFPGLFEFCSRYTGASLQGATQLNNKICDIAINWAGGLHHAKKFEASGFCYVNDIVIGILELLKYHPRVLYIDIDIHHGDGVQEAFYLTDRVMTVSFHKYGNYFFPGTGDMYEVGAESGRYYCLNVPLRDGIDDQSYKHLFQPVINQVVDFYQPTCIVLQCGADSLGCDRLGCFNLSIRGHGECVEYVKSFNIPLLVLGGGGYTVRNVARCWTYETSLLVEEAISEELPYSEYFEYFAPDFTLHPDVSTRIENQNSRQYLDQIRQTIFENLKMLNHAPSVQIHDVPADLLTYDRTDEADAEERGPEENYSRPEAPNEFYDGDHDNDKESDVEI
T1 sequence (Q9Y618 395-489 partner limits assumed): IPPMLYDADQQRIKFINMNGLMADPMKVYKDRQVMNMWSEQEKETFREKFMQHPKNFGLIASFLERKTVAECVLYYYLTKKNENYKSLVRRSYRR
Summary of the method: (§1)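 Reaction: enzyme plus acoustically dispensed peptide inhibitor, 50 μM RHKK(Ac)AMC substrate, pH 8.0 Tris buffer with BSA and 1% DMSO, 1 h, 30 °C. Duplicates averaged.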

HDAC6 = target: T2, HDAC6 (Homo sapiens, UniProt Q9UBN7); experiment: HDAC6 inhibition, full IC50 measurement (Reaction Biology; fluorogenic p53 peptide RHKK(Ac)AMC)
T2 construct: purchased Reaction Biology Corporation (assay run by the CRO)
T2 sequence (Q9UBN7 1-1215): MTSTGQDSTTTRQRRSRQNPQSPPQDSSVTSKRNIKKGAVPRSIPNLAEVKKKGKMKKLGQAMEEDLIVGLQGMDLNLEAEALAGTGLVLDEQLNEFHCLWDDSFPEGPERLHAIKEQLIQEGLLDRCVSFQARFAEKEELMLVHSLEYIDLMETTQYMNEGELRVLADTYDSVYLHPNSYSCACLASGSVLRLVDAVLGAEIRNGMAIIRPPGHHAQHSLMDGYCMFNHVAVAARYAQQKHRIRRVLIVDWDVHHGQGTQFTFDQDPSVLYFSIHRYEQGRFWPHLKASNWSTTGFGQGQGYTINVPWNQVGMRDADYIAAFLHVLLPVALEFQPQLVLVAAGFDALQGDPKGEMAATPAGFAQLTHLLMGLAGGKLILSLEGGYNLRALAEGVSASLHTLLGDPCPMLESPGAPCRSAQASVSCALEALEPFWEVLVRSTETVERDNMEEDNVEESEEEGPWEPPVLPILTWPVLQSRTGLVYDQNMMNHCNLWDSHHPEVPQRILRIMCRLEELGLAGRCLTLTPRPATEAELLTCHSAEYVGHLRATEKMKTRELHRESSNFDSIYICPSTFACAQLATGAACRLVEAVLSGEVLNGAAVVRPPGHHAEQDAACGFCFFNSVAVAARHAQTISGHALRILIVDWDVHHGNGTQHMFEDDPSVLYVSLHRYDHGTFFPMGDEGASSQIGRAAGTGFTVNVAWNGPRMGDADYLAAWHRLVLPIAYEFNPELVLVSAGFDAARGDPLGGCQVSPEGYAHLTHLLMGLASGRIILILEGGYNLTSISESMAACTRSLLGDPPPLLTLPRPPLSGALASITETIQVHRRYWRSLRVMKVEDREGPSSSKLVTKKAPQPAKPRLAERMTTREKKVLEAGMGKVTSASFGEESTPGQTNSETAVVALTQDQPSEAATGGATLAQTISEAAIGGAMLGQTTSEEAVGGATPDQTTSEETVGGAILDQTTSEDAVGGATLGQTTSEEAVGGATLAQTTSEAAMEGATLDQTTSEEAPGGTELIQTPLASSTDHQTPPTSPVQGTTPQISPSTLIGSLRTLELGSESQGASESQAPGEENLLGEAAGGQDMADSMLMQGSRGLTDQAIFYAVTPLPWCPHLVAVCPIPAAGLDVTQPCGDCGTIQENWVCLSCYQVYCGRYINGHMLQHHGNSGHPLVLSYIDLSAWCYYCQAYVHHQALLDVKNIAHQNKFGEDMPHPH
Summary of the method: as §1

HDAC1 = target: T3, HDAC1 (Homo sapiens, UniProt Q13547); experiment: HDAC1 inhibition, full IC50 measurement (Reaction Biology; fluorogenic p53 peptide RHKK(Ac)AMC); conditions: t1/t2 replicates
T3 construct: purchased Reaction Biology Corporation (assay run by the CRO)
T3 sequence (Q13547 whole entry): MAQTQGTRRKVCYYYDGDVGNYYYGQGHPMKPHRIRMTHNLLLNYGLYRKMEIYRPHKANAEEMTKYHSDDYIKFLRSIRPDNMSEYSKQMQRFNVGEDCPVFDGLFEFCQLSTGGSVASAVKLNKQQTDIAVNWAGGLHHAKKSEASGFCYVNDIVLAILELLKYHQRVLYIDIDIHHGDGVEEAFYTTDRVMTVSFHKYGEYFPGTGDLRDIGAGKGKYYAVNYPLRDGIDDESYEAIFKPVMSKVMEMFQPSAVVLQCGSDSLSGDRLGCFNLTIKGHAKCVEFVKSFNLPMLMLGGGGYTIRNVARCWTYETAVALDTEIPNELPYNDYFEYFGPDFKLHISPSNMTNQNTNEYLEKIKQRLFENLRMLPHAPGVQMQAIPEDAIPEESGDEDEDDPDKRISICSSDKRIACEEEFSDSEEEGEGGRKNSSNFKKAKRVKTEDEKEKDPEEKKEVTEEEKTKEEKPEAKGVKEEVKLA
Description: The assay was performed using 50 μM fluorogenic peptide from p53 residues 379-382 [RHKK(Ac)AMC] in a base reaction buffer of 50 mM Tris-HCl at pH 8.0, 137 mM NaCl, 2.7 mM KCl, 1 mM MgCl2, and freshly added 1 mg/ml BSA and 1% DMSO. Peptides were first dissolved in DMSO and then added to the reaction mixture with the enzyme using acoustic technique, enough to reach the desired concentration for that assay point. Peptide concentrations were calculated based on mass of lyophilized peptide and its molecular weight. The substrate was then added and incubated for 1 hour at 30 °C in a sealed container. After the incubation, developer was added to stop the reaction and develop color. Kinetic measurements were then performed for 20 min with Envision with 5 min intervals (Ex/Em = 360/460 nm). The endpoint after plateau was taken for IC50 measurement.
In cases where duplicate measures are used, average data is reported in the main text or Supplementary Tables.

## CCCC[C@H]1NC(=O)[C@H](Cc2ccccc2)NC(=O)[C@H](CCCCCS)NC(=O)[C@@H](CCCNC(=N)N)NC(=O)[C@H](CC(=O)O)NC(=O)[C@@H](CO)NC(=O)[C@@H](C)NC(=O)[C@H](CCCCN)NC1=O [des4.3.1, SHA-Phe-dNle-Lys-dAla-dSer-Asp-dArg] (HELM PEPTIDE1{D.[dR].[O=C([C@H](CCCCCS)N[*:1])[*:2]].F.[CCCC[C@@H](N[*:1])C(=O)[*:2]].K.[dA].[dS]}$PEPTIDE1,PEPTIDE1,1:R1-8:R2$$$V2.0)
HDAC3; Conc. 1.00E-05 M, t1
  HDAC3 activity raw data (signal): 46115
HDAC3; Conc. 1.00E-05 M, t2
  HDAC3 activity raw data (signal): 35378
HDAC3; Conc. 1.11E-06 M, t1
  HDAC3 activity raw data (signal): 372696
HDAC3; Conc. 1.11E-06 M, t2
  HDAC3 activity raw data (signal): 416274
HDAC3; Conc. 1.23E-07 M, t1
  HDAC3 activity raw data (signal): 1045370
HDAC3; Conc. 1.23E-07 M, t2
  HDAC3 activity raw data (signal): 1070696
HDAC3; Conc. 1.37E-08 M, t1
  HDAC3 activity raw data (signal): 1250439
HDAC3; Conc. 1.37E-08 M, t2
  HDAC3 activity raw data (signal): 1300529
HDAC3; Conc. 1.52E-09 M, t1
  HDAC3 activity raw data (signal): 1121419
HDAC3; Conc. 1.52E-09 M, t2
  HDAC3 activity raw data (signal): 1274974
HDAC3; Conc. 3.33E-06 M, t1
  HDAC3 activity raw data (signal): 172249
HDAC3; Conc. 3.33E-06 M, t2
  HDAC3 activity raw data (signal): 152173
HDAC3; Conc. 3.70E-07 M, t1
  HDAC3 activity raw data (signal): 787295
HDAC3; Conc. 3.70E-07 M, t2
  HDAC3 activity raw data (signal): 779442
HDAC3; Conc. 4.12E-08 M, t1
  HDAC3 activity raw data (signal): 1318255
HDAC3; Conc. 4.12E-08 M, t2
  HDAC3 activity raw data (signal): 1249169
HDAC3; Conc. 4.57E-09 M, t1
  HDAC3 activity raw data (signal): 1278679
HDAC3; Conc. 4.57E-09 M, t2
  HDAC3 activity raw data (signal): 1136444
HDAC3; Conc. 5.08E-10 M, t1
  HDAC3 activity raw data (signal): 1099296
HDAC3; Conc. 5.08E-10 M, t2
  HDAC3 activity raw data (signal): 1140869
HDAC6
  6-Selectivity: fold potency for HDAC6 over HDAC2: 88.2 fold and 88 fold
HDAC6; Conc. 1.00E-05 M, t1
  HDAC6 activity raw data (signal): 5754
HDAC6; Conc. 1.00E-05 M, t2
  HDAC6 activity raw data (signal): 4634
HDAC6; Conc. 1.11E-06 M, t1
  HDAC6 activity raw data (signal): 10293
HDAC6; Conc. 1.11E-06 M, t2
  HDAC6 activity raw data (signal): 17466
HDAC6; Conc. 1.23E-07 M, t1
  HDAC6 activity raw data (signal): 97345
HDAC6; Conc. 1.23E-07 M, t2
  HDAC6 activity raw data (signal): 90888
HDAC6; Conc. 1.37E-08 M, t1
  HDAC6 activity raw data (signal): 307015
HDAC6; Conc. 1.37E-08 M, t2
  HDAC6 activity raw data (signal): 326589
HDAC6; Conc. 1.52E-09 M, t1
  HDAC6 activity raw data (signal): 510826
HDAC6; Conc. 1.52E-09 M, t2
  HDAC6 activity raw data (signal): 490649
HDAC6; Conc. 3.33E-06 M, t1
  HDAC6 activity raw data (signal): 6046
HDAC6; Conc. 3.33E-06 M, t2
  HDAC6 activity raw data (signal): 6920
HDAC6; Conc. 3.70E-07 M, t1
  HDAC6 activity raw data (signal): 48261
HDAC6; Conc. 3.70E-07 M, t2
  HDAC6 activity raw data (signal): 37034
HDAC6; Conc. 4.12E-08 M, t1
  HDAC6 activity raw data (signal): 179198
HDAC6; Conc. 4.12E-08 M, t2
  HDAC6 activity raw data (signal): 202702
HDAC6; Conc. 4.57E-09 M, t1
  HDAC6 activity raw data (signal): 433664
HDAC6; Conc. 4.57E-09 M, t2
  HDAC6 activity raw data (signal): 442171
HDAC6; Conc. 5.08E-10 M, t1
  HDAC6 activity raw data (signal): 531205
HDAC6; Conc. 5.08E-10 M, t2
  HDAC6 activity raw data (signal): 556727
HDAC6; figure legends, Supp. Tables 1 and 8, read-out: HDAC6 IC50
  pIC50: 7.77
HDAC1; peptide conc. 1.00E-05 M, listed as des4.3.1_t1
  HDAC1 activity raw data (signal): 61312
HDAC1; peptide conc. 1.00E-05 M, listed as des4.3.1_t2
  HDAC1 activity raw data (signal): 56616
HDAC1; peptide conc. 1.11E-06 M, listed as des4.3.1_t1
  HDAC1 activity raw data (signal): 524367
HDAC1; peptide conc. 1.11E-06 M, listed as des4.3.1_t2
  HDAC1 activity raw data (signal): 474109
HDAC1; peptide conc. 1.23E-07 M, listed as des4.3.1_t1
  HDAC1 activity raw data (signal): 1051662
HDAC1; peptide conc. 1.23E-07 M, listed as des4.3.1_t2
  HDAC1 activity raw data (signal): 1036587
HDAC1; peptide conc. 1.37E-08 M, listed as des4.3.1_t1
  HDAC1 activity raw data (signal): 1215949
HDAC1; peptide conc. 1.37E-08 M, listed as des4.3.1_t2
  HDAC1 activity raw data (signal): 1295956
HDAC1; peptide conc. 1.52E-09 M, listed as des4.3.1_t1
  HDAC1 activity raw data (signal): 1351214
HDAC1; peptide conc. 1.52E-09 M, listed as des4.3.1_t2
  HDAC1 activity raw data (signal): 1240672
HDAC1; peptide conc. 3.33E-06 M, listed as des4.3.1_t1
  HDAC1 activity raw data (signal): 212161
HDAC1; peptide conc. 3.33E-06 M, listed as des4.3.1_t2
  HDAC1 activity raw data (signal): 198550
HDAC1; peptide conc. 3.70E-07 M, listed as des4.3.1_t1
  HDAC1 activity raw data (signal): 878996
HDAC1; peptide conc. 3.70E-07 M, listed as des4.3.1_t2
  HDAC1 activity raw data (signal): 808933
HDAC1; peptide conc. 4.12E-08 M, listed as des4.3.1_t1
  HDAC1 activity raw data (signal): 1147207
HDAC1; peptide conc. 4.12E-08 M, listed as des4.3.1_t2
  HDAC1 activity raw data (signal): 1235202
HDAC1; peptide conc. 4.57E-09 M, listed as des4.3.1_t1
  HDAC1 activity raw data (signal): 1224928
HDAC1; peptide conc. 4.57E-09 M, listed as des4.3.1_t2
  HDAC1 activity raw data (signal): 1148569
HDAC1; peptide conc. 5.08E-10 M, listed as des4.3.1_t1
  HDAC1 activity raw data (signal): 1219331
HDAC1; peptide conc. 5.08E-10 M, listed as des4.3.1_t2
  HDAC1 activity raw data (signal): 1171745
